# US20080045492A1, “Mitotic Kinesin Inhibitors” (priority 2004, published 2008)
# Read-outs that look alike come from different tables or passages of the source.
# Target: T1, human KSP motor domain (KSP(367H)) (Homo sapiens, UniProt P52732)
# T1 construct: were used to amplify the motor domain and the neck linker region; made in house; host or cells: E. coli BL21 (DE3), pRSETa
# T1 sequence (P52732 18-359 limits assumed): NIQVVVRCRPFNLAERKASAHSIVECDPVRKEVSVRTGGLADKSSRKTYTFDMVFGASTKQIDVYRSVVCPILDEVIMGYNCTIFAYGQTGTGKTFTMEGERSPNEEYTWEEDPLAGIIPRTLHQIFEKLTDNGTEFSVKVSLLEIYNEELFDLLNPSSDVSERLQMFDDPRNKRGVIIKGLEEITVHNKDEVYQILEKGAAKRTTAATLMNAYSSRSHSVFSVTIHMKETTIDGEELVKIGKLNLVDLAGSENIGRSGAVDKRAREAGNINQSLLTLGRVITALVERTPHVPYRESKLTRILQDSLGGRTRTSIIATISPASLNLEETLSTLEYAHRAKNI
# Assay: Kinesin ATPase In Vitro Assay
# Assay type: biochemical
# Procedure: I. Kinesin ATPase In Vitro Assay
# The N-terminal primer 5′-[…] (SEQ. ID. NO.: 1) and the C-terminal primer 5′-[…] […] […] The PCR products were digested with AseI and XhoI, ligated into the NdeI/XhoI digestion product of pRSETa (Invitrogen) and transformed into E. coli BL21 (DE3).
# Cells were grown at 37° C. to an OD600 of 0.5. After cooling the culture to room temperature expression of KSP was induced with 100 μM IPTG and incubation was continued overnight. Cells were pelleted by centrifugation and washed once with ice-cold PBS. Pellets were flash-frozen and stored −80° C.
# Cell pellets were thawed on ice and resuspended in lysis buffer (50 mM K-HEPES, pH 8.0, 250 mM KCl, 0.1% Tween, 10 mM imidazole, 0.5 mM Mg-ATP, 1 mM PMSF, 2 mM benzimidine, 1× complete protease inhibitor cocktail (Roche)). Cell suspensions were incubated with 1 mg/ml lysozyme and 5 mM β-mercaptoethanol on ice for 10 minutes, followed by sonication (3×30 sec). All subsequent procedures were performed at 4° C. Lysates were centrifuged at 40,000×g for 40 minutes. Supernatants were diluted and loaded onto an SP Sepharose column (Pharmacia, 5 ml cartridge) in buffer A (50 mM K-HEPES, pH 6.8, 1 mM MgCl2, 1 mM EGTA, 10 μM Mg-ATP, 1 mM DTT) and eluted with a 0 to 750 mM KCl gradient in buffer A. Fractions containing KSP were pooled and incubated with Ni-NTA resin (Qiagen) for one hour. The resin was washed three times with buffer B (Lysis buffer minus PMSF and protease inhibitor cocktail), followed by three 15-minute incubations and washes with buffer B. Finally, the resin was incubated and washed for 15 minutes three times with buffer C (same as buffer B except for pH 6.0) and poured into a column. KSP was eluted with elution buffer (identical to buffer B except for 150 mM KCl and 250 mM imidazole). KSP-containing fractions were pooled, made 10% in sucrose, and stored at −80° C.
# Microtubules are prepared from tubulin isolated from bovine brain. Purified tubulin (>97% MAP-free) at 1 mg/ml is polymerized at 37° C. in the presence of 10 μM paclitaxel, 1 mM DTT, 1 mM GTP in BRB80 buffer (80 mM K-PIPES, 1 mM EGTA, 1 mM MgCl2 at pH 6.8). The resulting microtubules are separated from non-polymerized tubulin by ultracentrifugation and removal of the supernatant. The pellet, containing the microtubules, is gently resuspended in 10 μM paclitaxel, 1 mM DTT, 50 μg/ml ampicillin, and 5 μg/ml chloramphenicol in BRB80.
# The kinesin motor domain is incubated with microtubules, 1 mM ATP (1:1 MgCl2: Na-ATP), and compound at 23° C. in buffer containing 80 mM K-HEPES (pH 7.0), 1 mM EGTA, 1 mM DTT, 1 mM MgCl2, and 50 mM KCl. […] Free phosphate from the ATP hydrolysis reaction is measured via a quinaldine red/ammonium molybdate assay by adding a […] of quench C (e.g., to a mixture of 40 μl reaction volume+40 μl stop buffer is then added 120 μl quench C). […] Quench C is a 2:1 ratio of quench A:quench B The reaction is incubated for 5-10 minutes at 23° C., and the absorbance of the phospho-molybdate complex is measured at 540 nm.
# [1] = kinesin motor domain with microtubules, 1 mM ATP, 23° C., read-out: IC50
SMILES,IC50 [1] [µM],IC50 [µM]
"CON(C)C(=O)C1=NN(c2cc(C)ccc2F)CC1(CCCO)c1ccccc1 (racemic) [Compound 2-1, (±)-1-(2-fluoro-5-methylphenyl)-4-(3-hydroxypropyl)-N-methoxy-N-methyl-4-phenyl-4,5-dihydro-1H-pyrazole-3-carboxamide]",≤ 50,–
"CC(=O)C1=NN(c2cc(C)ccc2F)CC1(CCCN(C)C)c1ccccc1 (racemic) [Compound 2-3, (±)-(1-[4-[3-(dimethylamino)propyl]-1-(2-fluoro-5-methylphenyl)-4-phenyl-4,5-dihydro-1H-pyrazol-3-yl]ethanone]",–,≤ 50
"CC(=O)C1=NN(c2cccc(F)c2)CC1c1ccccc1 (racemic) [Compound 3-5, (±)-1-[1-(3-fluorophenyl)-4-phenyl-4,5-dihydro-1H-pyrazol-3-yl]ethanone]",≤ 50,–
"CCOC(=O)C1=NN(c2cc(F)ccc2F)C(N2CCOCC2)C1c1ccccc1 (racemic) [Compound 44, (±)-Ethyl 1-(2,5-difluorophenyl)-5-morpholin-4-yl-4-phenyl-4,5-dihydro-1H-pyrazole-3-carboxylate]",≤ 50,–
"CC(=O)c1nn(-c2cc(F)ccc2F)cc1-c1ccccc1 [Compound 4-7, 1-[1-(2,5-difluorophenyl)-4-phenyl-1H-pyrazol-3-yl]ethanone]",≤ 50,–
